These results are taken from patent publication US6133233A, “Peptide modulation of reperfusion injury” (Kansas State University Research Foundation, priority 1998, dated 2000).

Assay [1] relates to leukocyte adherence and extravasation. The note with it: cited from earlier work.
Assay [2] has as its system neutrophil oxidase activity. Nature of the assay: Superoxide anion production in whole neutrophils (SOD-inhibitable ferricytochrome c reduction, PMA). To be noted: concentrations 5-10 μM. Format: cell-based. The method, then:
(§1) In these experiments, superoxide anion production by neutrophils was determined by the superoxide dismutase-inhibitable reduction of ferricytochrome c.
(§2) Four samples were prepared for each animal: (1) neutrophils (1×10^6 cells) in Hanks' balanced salt solution (HBSS; without phenol red) mixed with 100 μl (80 μM) of ferricytochrome c, 10 μl (0.1 μg) phorbol myristate acetate (PMA), and 100 μl (300 U) of superoxide dismutase (SOD); (2) cells treated with ferricytochrome c only; (3) cells treated with ferricytochrome c and PMA; and (4) cells treated with ferricytochrome c and SOD. The mixtures were incubated at 39° C. for 20 min. and then centrifuged at 4° C. (350×g) for 5 min. Cell-free supernatant (200 μl) was transferred to flat-bottom 96-well plates, and OD was read at 550 nm using HBSS as the blank. Production of superoxide anion was calculated using the following formula: OD of [(3+4)-(1+2)]×190.5=nm superoxide/1 ×10^6 cells/20 min.

The next assay has as its system intact human neutrophils. The assay can be described thus: Superoxide anion generation in intact human neutrophils. In kind it is cell-based. The method, then: as §1, §2
In the next assay the test system is neutrophil chemotaxis. The assay can be described thus: Neutrophil microchemotaxis assay. Format: cell-based. The note with it: rat neutrophils; PR-39 10 μM. An excerpt:
A microchemotaxis assay was used to examine the effect of PR-39 (SEQ ID No. 1) and another basic, PXXP-containing antimicrobial peptide, Bac5 (SEQ ID No. 7), on neutrophil chemotaxis alone and in combination. Whole blood was obtained from 250-350 g Sprague-Dawley rats by terminal cardiac puncture into acid citrate dextrose solution. Neutrophils were isolated by dextran sedimentation, followed by density-gradient centrifugation and hypotonic lysis to remove contaminating erythrocytes. Micropore filters (5 μM-pore polycarbonate membrane) were used to separate the lower and upper chambers of the microchemotaxis chamber. Attractants to be tested were diluted in RPMI medium and added (35 μl) to the lower wells of the chamber; 50 μl of the cell suspension ([…]) was added to the upper chamber. Chambers were placed in a humidified atmosphere of 5% CO2 in air at 37° C. for 40 min. Cells on the underside of the filters were fixed, stained, and counted using high-power brightfield microscopy. For each sample, four test wells containing chemoattractant were used. The total number of neutrophils in five fields was counted for each well. All results are expressed as a chemotaxis index defined as […].

In a further assay the test system is reactive oxygen species. The assay can be described thus: Reactive oxygen (oxidant) production after mesenteric ischemia-reperfusion, dihydrorhodamine 123 intravital fluorescence. The note with it: rats. In kind it is in vivo, rat. The method, then: (§3) In this example, the efficiency of PR-39 (SEQ ID NO: 1) was tested in an in vivo model of reperfusion. Measurements of reactive oxygen release, neutrophil adherence to postcapillary venules and neutrophil emigration through venular endothelium, and vascular leakage were made in the presence and absence of PR-39 (SEQ ID No. 1).
In this example, male Sprague-Dawley rats weighing 220-250 g each were used. The rats were anesthetized by intraperitoneal injection of pentobarbital (30-40 mg/kg rat body weight) and the jugular vein of each rat was cannulated for reagent injection. The carotid artery of each rat was also cannulated for measurements of mean arterial blood pressure using a pressure transducer (Model P23a, Statham) and physiological recorder (Grass Instruments). […] The images were captured with a charge-coupled device camera (Model C2400-60, Hamamatsu Photonics) which was mounted on the microscope, projected onto a television monitor (Model PVM-2030, Sony) and recorded using a videocassette recorder (Model HS-U65, Mitsubishi). […]
(§4) Single, unbranched venules with diameters between 25-35 μm and lengths longer than 150 μm (both measured with a video caliper, Microcirculation Research Institute, Texas A&M University) were selected for the studies. […]
In more detail, generation of reactive oxygen levels were measured by the dihydrorhodamine 123 dye. […]

For another assay, the system named is venular protein leakage. Nature of the assay: Albumin leakage through mesenteric venules (vascular integrity) after ischemia-reperfusion. Format: in vivo, rat. To be noted: rats, PR-39 pretreatment. The method, then:
An assessment of vascular integrity was made by quantification of albumin leakage through mesenteric venules. Three groups of Sprague-Dawley rats (6 rats/group and respectively labeled control, I/R and I/R+PR-39) were obtained. […] The control group was subjected to a similar surgical preparation, but without occlusion of the mesenteric artery or PR-39 (SEQ ID No. 1) administration. Fifty mg/kg fluorescein isothiocyanate-labeled bovine albumin was administered IV to each of the rats of each group, 15 min. prior to release of occlusion of the rats of the I/R and I/R+PR-39 (SEQ ID No. 1) groups. Fluorescence intensities within three segments of the venule under study (Iv) and in three adjacent areas of interstitium (Ii) were detected using a SIT camera (Model C-2400-08; Hamamatsu Photonics). Measurements were made at the basal, 20-30 min., and 50-60 min. time points using a computer-assisted digital imaging processor (NIH Image 1.35 on a Macintosh computer). An index of albumin leakage was expressed as the ratio of Ii to Iv at each time.

Assay [3] concerns leukocyte adherence to mesenteric venular endothelium. Nature of the assay: Leukocyte adherence to mesenteric venular endothelium after ischemia-reperfusion. In kind it is in vivo, rat. To be noted: rats, pretreatment with about 5 μM. The method, then:
as §3
(§5) In this example, male Sprague-Dawley rats weighing 220-250 g each were used. The rats were anesthetized by intraperitoneal injection of pentobarbital (30-40 mg/kg rat body weight) and the jugular vein of each rat was cannulated for reagent injection. […] The images were captured with a charge-coupled device camera (Model C2400-60, Hamamatsu Photonics) which was mounted on the microscope, projected onto a television monitor (Model PVM-2030, Sony) and recorded using a videocassette recorder (Model HS-U65, Mitsubishi). […]
as §4
(§6) The number of adherent and transmigrating leukocytes was determined off-line using videotaped images. […] Adherent leukocytes were expressed as the number per 100 μm length of venule. The number of emigrating leukocytes were also determined off-line and were expressed as the number per microscopic field.

In assay [4] the test system is bovine pulmonary artery endothelial (BPAE) cells. Nature of the assay: Superoxide production in high K+ treated BPAE cells (dichlorodihydrofluorescein). Format: cell-based. To be noted: 10 μM, 30 min. The method, then: PR-39 (SEQ ID No. 1) was also tested in a cell other than neutrophils, namely bovine pulmonary artery endothelial (BPAE) cells. In these cells, membrane depolarization induced by high K^+ treatment results in the production of superoxide anion by an endothelial NADPH oxidase enzyme that may be similar to the oxidase found in neutrophils. In these experiments, cultured BPAE cells were loaded with an oxidation-sensitive dye, dichlorodihydrofluorescein, then treated with high K^+, plus or minus PR-39 (SEQ ID No. 1) or PR-26 (SEQ ID No. 2), for 30 min. Cells were then scraped, pelleted, washed, and sonicated. Fluorescence of the supernatant was then measured to assess superoxide production.

Assay [5] concerns leukocyte emigration through venular endothelium. The assay can be described thus: Leukocyte emigration through venular endothelium after ischemia-reperfusion. To be noted: rats, pretreatment with about 5 μM. Format: in vivo, rat. The method, then: as §3, §5, §4, §6
Where [6] appears, read: 2 μM adenosine, cat mesenteric model.

With `Nc1ncnc2c1ncn2[C@@H]1O[C@H](CO)[C@@H](O)[C@H]1O` [adenosine], in assay [1] (setting [6]), the “Reduction of reperfusion injury-induced adhesion of neutrophils” value is given as 65% and the “Reduction of reperfusion injury-induced extravasation of neutrophils” value is recorded as 32%. In addition, the “Reduction of oxidant release” value in assay [1] (adenosine treatment, literature) is listed as 20%.
Regarding “Bac5: basic, PXXP-containing antimicrobial peptide (RFRPPIRRPPIRPPFYPPFRPPIRPPIFPPIRPPFRPPLGPFP)”, the “Inhibition of neutrophil oxidase activity (superoxide anion generation in intact neutrophils)” value in assay [2] was “inhibition of superoxide anion generation”.
Still for that read-out and setting: then “Bac7: cationic, proline-rich, PXXP-containing peptide (RRIRPRPPRLPRPRPRPLYC)”, with “inhibition of superoxide anion generation”.
Take “C7: non-naturally occurring, cationic, PXXP-containing peptide (RRGPRHPQTRLPRPLPDP)”: the “Inhibition of superoxide anion generation in intact human neutrophils” value in the assay with intact human neutrophils is on record as “inhibition of superoxide anion generation”.
For the compound “PR-39: proline/arginine-rich peptide of 39 residues (29/39 proline and arginine), most preferred peptide (RRRPRPPYLPRPRPPPFFPPRLPPRIPPGFPPRFPPRFP)”, the “Inhibition of neutrophil oxidase activity (superoxide anion generation in intact neutrophils)” value in [2] is given as “inhibition of superoxide anion generation”. Further, the “Neutrophil chemotaxis, examined alone” value with neutrophil chemotaxis is listed as “chemotactic for neutrophils”. Further, the “Oxidant release (reactive oxygen production)” value with reactive oxygen species (PR-39 pretreatment, comparison with adenosine) is “complete prevention of oxidant release”. In the assay with reactive oxygen species (about 5 μM PR-39 pre-ischemia, 20 min ischemia, 30 minutes after resumption of mesenteric venular circulation), the Oxidant production entry was “significantly inhibited”. In the assay with venular protein leakage, the “Vascular integrity (albumin leakage index Ii/Iv)” value is “prevented loss of vascular integrity”. In assay [3], the “Neutrophil adhesion to venular endothelium” value is listed as “no apparent endothelium neutrophil interaction in excess of basal levels”. For the same compound, the “Oxidase activity (superoxide production) in pulmonary endothelium” value in assay [4] is given as “decrease oxidase activity”. For the same compound, in assay [5] (basal), the Basal neutrophil emigration result was “appeared to be diminished”. The Transvascular neutrophil emigration result in assay [5] (both post-release time points) is on record as “no migrating neutrophils observed”.
Consider “platelet activating factor [PAF, reference compound]”, for which the “Neutrophil chemotaxis, examined alone” value in the assay on neutrophil chemotaxis is “chemotactic for neutrophils”.
